From patent publication US4189484A, “Antihypertensive quinazoline derivatives” (priority 1977, dated 1980)

Test system: spontaneously hypertensive rats (SHR)
Assay: Antihypertensive effect, oral administration to spontaneously hypertensive rats (mean blood pressure and heart rate)
Format: in vivo, rat
Details: SHR, p.o.; for Changes in average blood pressures after administration: Table 3; for Change in blood pressure after 3 hrs. from administration: Table 1
Procedure: Antihypertensive effect was determined by oral administration of the test compound to spontaneously hypertensive rats (hereinafter referred to as SHR).
These SHR were anesthetized with ether and chronically embedded with a cannula for determination of blood pressure so that one end of the said cannula may be placed in abdominal aorta and the other end thereof may be projected out of dorsal neck. When rats regained their body weight before operation in more than 1 week from operation, the test compound was given. Determination was made by measuring a mean blood pressure and a heart rate under unanesthetized and unrestrained conditions with the cannula connected to an electronic recording system. The test compound was suspended in a 1% tragacanth gum solution to make up a concentration so as to be a volume of 5 ml./kg. and then orally given.

Row | SMILES | Changes in average blood pressures after administration (3 mg./kg., 1 hr.) [mmHg] | Changes in average blood pressures after administration (3 mg./kg., 3 hrs.) [mmHg] | Changes in average blood pressures after administration (3 mg./kg., 6 hrs.) [mmHg] | Changes in average blood pressures after administration (3 mg./kg., 24 hrs.) [mmHg] | Change in blood pressure after 3 hrs. from administration (10 mg./kg., 3 hrs.) [mmHg] | other results
1 | COc1cc2nc(N3CCN(C(=O)C(C)=Cc4ccco4)CC3)nc(N)c2cc1OC [compound 31, 2-{4-[2-Methyl-3-(furan-2-yl)-acryloyl]-piperazin-1-yl}-4-amino-6,7-dimethoxyquinazoline] |  |  |  |  |  | Changes in average blood pressures after administration (1 mg./kg., 1 hr.): -22 mmHg; Changes in average blood pressures after administration (1 mg./kg., 3 hrs.): -23 mmHg; Changes in average blood pressures after administration (1 mg./kg., 6 hrs.): -24 mmHg; Changes in average blood pressures after administration (1 mg./kg., 24 hrs.): -6 mmHg
2 | COc1cc2nc(N3CCN(C(=O)C=Cc4cccnc4)CC3)nc(N)c2cc1OC [compound 44, 2-{4-[3-(Pyridin-3-yl)-acryloyl]-piperazin-1-yl}-4-amino-6,7-dimethoxyquinazoline] | -28 | -15 | -25 | 3 |  | 
3 | COc1cc2nc(N3CCN(C(=O)C=Cc4cccs4)CC3)nc(N)c2cc1OC [compound 35, 2-{4-[3-(Thiophen-2-yl)-acryloyl]-piperazin-1-yl}-4-amino-6,7-dimethoxyquinazoline] | -45 | -27 | -42 | -2 |  | Changes in average blood pressures after administration (1 mg./kg., 1 hr.): -27 mmHg; Changes in average blood pressures after administration (1 mg./kg., 3 hrs.): -25 mmHg; Changes in average blood pressures after administration (1 mg./kg., 6 hrs.): -25 mmHg; Changes in average blood pressures after administration (1 mg./kg., 24 hrs.): 0 mmHg
4 | COc1cc2nc(N3CCN(C(=O)C=Cc4ccc(N(C)C)cc4)CC3)nc(N)c2cc1OC [compound 23, 2-[4-(4-Dimethylaminocinnamoyl)-piperazin-1-yl]-4-amino-6,7-dimethoxyquinazoline] |  |  |  |  | -15 | 
5 | COc1cc(C=CC(=O)N2CCN(c3nc(N)c4cc(OC)c(OC)cc4n3)CC2)cc(OC)c1 [compound 13, 2-[4-(3,5-Dimethoxycinnamoyl)-piperazin-1-yl]-4-amino-6,7-dimethoxyquinazoline] |  |  |  |  | -12 | 
6 | COc1cc2nc(N3CCN(C(=O)C=Cc4ccccc4C)CC3)nc(N)c2cc1OC [compound 2, 2-[4-(2-Methylcinnamoyl)-piperazin-1-yl]-4-amino-6,7-dimethoxyquinazoline] |  |  |  |  | -43 | 
7 | COc1cc2nc(N3CCCN(C(=O)C=Cc4cccnc4)CC3)nc(N)c2cc1OC [compound 48, 2-{4-[3-(Pyridin-3-yl)-acryloyl]-homopiperazin-1-yl}-4-amino-6,7-dimethoxyquinazoline] | -9 | 0 | 0 | 2 |  | 
8 | COc1cc2nc(N3CCN(C(=O)C=Cc4ccc(Cl)o4)CC3)nc(N)c2cc1OC [compound 34, 2-{4-[3-(5-chlorofuran-2-yl)-acryloyl]-piperazin-1-yl}-4-amino-6,7-dimethoxyquinazoline] | -20 | -26 | -28 | 0 |  | 
9 | COc1cc2nc(N3CCN(C(=O)C(C)=Cc4cccs4)CC3)nc(N)c2cc1OC [compound 39, 2-{4-[2-Methyl-3-(thiophen-2-yl)-acryloyl]-piperazin-1-yl}-4-amino-6,7-dimethoxyquinazoline] | -65 | -27 | -35 | -15 |  | Changes in average blood pressures after administration (1 mg./kg., 1 hr.): -18 mmHg; Changes in average blood pressures after administration (1 mg./kg., 3 hrs.): -12 mmHg; Changes in average blood pressures after administration (1 mg./kg., 6 hrs.): -13 mmHg; Changes in average blood pressures after administration (1 mg./kg., 24 hrs.): 3 mmHg
10 | COc1cc2nc(N3CCN(C(=O)C=Cc4cccc(C(F)(F)F)c4)CC3)nc(N)c2cc1OC [compound 22, 2-[4-(3-Trifluoromethylcinnamoyl)-piperazin-1-yl]-4-amino-6,7-dimethoxyquinazoline] |  |  |  |  | -10 | 
11 | COc1cc2nc(N3CCN(C(=O)C=Cc4ccncc4)CC3)nc(N)c2cc1OC [compound 45, 2-{4-[3-(Pyridin-4-yl)-acryloyl]-piperazin-1-yl}-4-amino-6,7-dimethoxyquinazoline] | -9 | -5 | -12 | 0 |  | 
12 | COc1cc2nc(N3CCCN(C(=O)C=Cc4cccs4)CC3)nc(N)c2cc1OC [compound 47, 2-{4-[3-(Thiophen-2-yl)-acryloyl]-homopiperazin-1-yl}-4-amino-6,7-dimethoxyquinazoline] | -22 | -13 | -17 | 2 |  | 
13 | COc1cc2nc(N3CCN(C(=O)C=Cc4ccc([N+](=O)[O-])o4)CC3)nc(N)c2cc1OC [compound 33, 2-{4-[3-(5-Nitrofuran-2-yl)-acryloyl]-piperazin-1-yl}-4-amino-6,7-dimethoxyquinazoline] | -15 | -20 | -11 | 3 |  | 
14 | COc1cc2nc(N3CCN(C(=O)C=Cc4ccccn4)CC3)nc(N)c2cc1OC [compound 43, 2-{4-[3-(Pyridin-2-yl)-acryloyl]-piperazin-1-yl}-4-amino-6,7-dimethoxyquinazoline] | -40 | -22 | -30 | 8 |  | Changes in average blood pressures after administration (10 mg./kg., 1 hr.): -23 mmHg; Changes in average blood pressures after administration (10 mg./kg., 3 hrs.): -22 mmHg; Changes in average blood pressures after administration (10 mg./kg., 6 hrs.): -18 mmHg; Changes in average blood pressures after administration (10 mg./kg., 24 hrs.): -3 mmHg
15 | COc1cccc(C=CC(=O)N2CCN(c3nc(N)c4cc(OC)c(OC)cc4n3)CC2)c1 [compound 7, 2-[4-(3-Methoxycinnamoyl)-piperazin-1-yl]-4-amino-6,7-dimethoxyquinazoline] |  |  |  |  | -18 | 
16 | COc1cc2nc(N3CCN(C(=O)C=Cc4ccc(OC)c(OC)c4OC)CC3)nc(N)c2cc1OC [compound 14, 2-[4-(2,3,4-Trimethoxycinnamoyl)-piperazin-1-yl]-4-amino-6,7-dimethoxyquinazoline] |  |  |  |  | -22 | 
17 | COc1cc2nc(N3CCN(C(=O)C=Cc4ccc(C)cc4)CC3)nc(N)c2cc1OC [compound 4, 2-[4-(4-Methylcinnamoyl)-piperazin-1-yl]-4-amino-6,7-dimethoxyquinazoline] |  |  |  |  | -18 | 
18 | COc1cc2nc(N3CCN(C(=O)C=Cc4ccc(C)o4)CC3)nc(N)c2cc1OC [compound 30, 2-{4-[3-(5-Methylfuran-2-yl)-acryloyl]-piperazin-1-yl}-4-amino-6,7-dimethoxyquinazoline] |  |  |  |  |  | Changes in average blood pressures after administration (1 mg./kg., 1 hr.): -13 mmHg; Changes in average blood pressures after administration (1 mg./kg., 3 hrs.): -12 mmHg; Changes in average blood pressures after administration (1 mg./kg., 6 hrs.): -15 mmHg; Changes in average blood pressures after administration (1 mg./kg., 24 hrs.): 0 mmHg
19 | COc1cc2nc(N3CCN(C(=O)C=Cc4ccc(Br)cc4)CC3)nc(N)c2cc1OC [compound 21, 2-[4-(4-Bromocinnamoyl)-piperazin-1-yl]-4-amino-6,7-dimethoxyquinazoline] |  |  |  |  | -22 | 
20 | COc1cc2nc(N3CCN(C(=O)C=Cc4ccc(C)s4)CC3)nc(N)c2cc1OC [compound 38, 2-{4-[3-(5-Methylthiophen-2-yl)-acryloyl]-piperazin-1-yl}-4-amino-6,7-dimethoxyquinazoline] | -18 | -27 | -18 | -2 |  | 
